Experimental data published in ChEMBL document CHEMBL1955835, “Effects of the indolocarbazole 3744W on the tyrosine kinase activity of the cytoplasmic domain of the platelet-derived growth factor beta-receptor” (Cell Signal, 1999).
Activity calls are given as the source filed them. No cut-off for these calls is given here.

Experiments:
[1] = target: T1, Platelet-derived growth factor receptor beta (Homo sapiens, UniProt P09619); experiment: Inhibition of recombinant cytoplasmic domain of PDGFRbeta autophosphorylation expressed in baculovirus infected Sf21 insect cells using [gamma-33P]ATP by SDS-PAGE based scintillation counting
[2] = Inhibition of PDGF-dependent PDGFR autophosphorylation in rat A10 cells; format: cell-based
[3] = target: T1, Platelet-derived growth factor receptor beta; experiment: Inhibition of recombinant cytoplasmic domain of PDGFRbeta expressed in baculovirus infected Sf21 insect cells using 10 fold less poly(Glu4,Tyr1) and [gamma-33P]ATP at 100 uM by SDS-PAGE based scintillation counting
[4] = target: T1, Platelet-derived growth factor receptor beta; experiment: Inhibition of recombinant cytoplasmic domain of PDGFRbeta expressed in baculovirus infected Sf21 insect cells using poly(Glu4,Tyr1) and [gamma-33P]ATP at 100 uM by SDS-PAGE based scintillation counting
[5] = Inhibition of PDGF-dependent PDGFR-mediated cell proliferation in rat A10 cells; format: cell-based
[6] = target: T1, Platelet-derived growth factor receptor beta; experiment: Inhibition of recombinant cytoplasmic domain of PDGFRbeta expressed in baculovirus infected Sf21 insect cells assessed as tyrosine phosphorylation treated 30 hrs after infection measured after 48 hrs of post infection by Western blotting

T1 sequence (P09619 whole entry, the tested form may be a part): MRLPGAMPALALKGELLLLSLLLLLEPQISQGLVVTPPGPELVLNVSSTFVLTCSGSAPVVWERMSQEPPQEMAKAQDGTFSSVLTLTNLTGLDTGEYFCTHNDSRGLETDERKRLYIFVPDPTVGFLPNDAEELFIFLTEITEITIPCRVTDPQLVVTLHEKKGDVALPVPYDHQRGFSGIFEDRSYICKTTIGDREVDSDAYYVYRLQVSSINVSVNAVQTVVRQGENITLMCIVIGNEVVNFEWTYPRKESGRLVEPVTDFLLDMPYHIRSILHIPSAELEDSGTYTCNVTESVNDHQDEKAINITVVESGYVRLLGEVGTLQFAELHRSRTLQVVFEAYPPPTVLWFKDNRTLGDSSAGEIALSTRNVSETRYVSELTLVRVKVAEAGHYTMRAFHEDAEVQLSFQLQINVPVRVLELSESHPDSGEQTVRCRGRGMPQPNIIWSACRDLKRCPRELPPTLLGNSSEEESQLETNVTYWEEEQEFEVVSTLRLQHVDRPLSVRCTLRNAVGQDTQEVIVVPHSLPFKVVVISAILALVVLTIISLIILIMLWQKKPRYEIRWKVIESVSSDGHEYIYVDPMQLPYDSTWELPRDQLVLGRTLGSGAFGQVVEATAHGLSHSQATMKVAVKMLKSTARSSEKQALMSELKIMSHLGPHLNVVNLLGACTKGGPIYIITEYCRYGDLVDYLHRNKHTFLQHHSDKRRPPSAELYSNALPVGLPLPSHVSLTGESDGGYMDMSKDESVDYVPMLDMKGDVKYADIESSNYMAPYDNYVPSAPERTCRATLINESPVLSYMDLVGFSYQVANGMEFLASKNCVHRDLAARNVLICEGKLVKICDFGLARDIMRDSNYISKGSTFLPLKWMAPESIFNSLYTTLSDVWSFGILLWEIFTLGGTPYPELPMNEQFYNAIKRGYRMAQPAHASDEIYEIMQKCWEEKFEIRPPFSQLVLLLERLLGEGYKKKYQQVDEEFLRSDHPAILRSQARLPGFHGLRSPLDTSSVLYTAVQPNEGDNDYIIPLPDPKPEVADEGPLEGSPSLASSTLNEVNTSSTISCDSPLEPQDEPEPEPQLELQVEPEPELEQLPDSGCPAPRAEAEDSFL

IC50 [1]: 1800 nM | inhibition [1]: Dose-dependent effect | IC50 [2]: 15 nM | inhibition [3]: inactive | inhibition [4]: inactive | IC50 [6]: 2000 nM | inhibition [6]: Dose-dependent effect
Compound: COc1ccc2[nH]c3c4[nH]c5ccc(OC)cc5c4c4c(c3c2c1)C(=O)NC4=O [GW296115X]
IC50 [5]: 10 nM
